Measurements taken from US9464048B2, “5-oxo-ETE receptor antagonist compounds” (THE ROYAL INSTITUTION FOR THE ADVANCEMENT OF …, priority 2009, dated 2016).

These compounds were tested against OXE receptor (Homo sapiens, UniProt Q8TDS5) (assay: 5-oxo-ETE-induced calcium mobilization in human granulocytes). Conditions: not given.
Assay type: cell-based
Set-up: Human granulocytes 95% neutrophils) are prepared from whole blood; endogenous in cells; host or cells: human blood granulocytes (>=95% neutrophils)
Protocol: Primary Screening for Antagonist Activity: Calcium Mobilization in Human Granulocytes
Human granulocytes 95% neutrophils) are prepared from whole blood using Dextran 500 to remove red blood cells, followed by centrifugation over Ficoll-Paque to remove mononuclear cells and hypotonic lysis of any remaining red blood cells. After centrifugation the granulocytes are suspended in Ca^++/Mg^++-free phosphate-buffered saline (PBS). Granulocytes (10^7 cells/nil) are incubated with the acetoxymethyl ester of indo-1 ([…]) for 30 min, followed by washing twice with PBS^− and resuspension in the same medium to obtain a final cell concentration of 3.22×10^6 cells/ml. Five minutes prior to commencing data acquisition, Ca^++ and Mg^++ are added to give final concentrations of 1.8 and 1 mM, respectively. Calcium measurements are performed at 37° C. using a spectrofluorometer equipped with a temperature-controlled cuvette holder and a magnetic stirrer. The excitation and emission wavelengths are 331 nm and 410 nm, respectively. Following stabilization of the baseline, fluorescence is measured for 1 min, prior to the addition of either vehicle or various concentrations of a potential 5-oxo-ETE antagonist. Two min later, 5-oxo-ETE (10 nM) is added, followed 1 min later by digitonin (final concentration 0.1%). Data acquisition is terminated after a further 0.5 min. In some cases LTB4 (10 nM) is added 2 min after 5-oxo-ETE, followed 0.5 min later by addition of digitonin. Fmax is determined from fluorescence measurements after the addition of digitonin, whereas Fmin is determined after determination of autofluorescence as described in the literature (Gelfand et al, J. Biol. Chem. 261:11520 (1986)). A dissociation constant of 250 nM for the indo-1/Ca^++ complex is used to calculate [Ca^++]i. […] Measurement of Actin Polymerization in Eosinophils

Sequence of OXE receptor (Q8TDS5 whole entry): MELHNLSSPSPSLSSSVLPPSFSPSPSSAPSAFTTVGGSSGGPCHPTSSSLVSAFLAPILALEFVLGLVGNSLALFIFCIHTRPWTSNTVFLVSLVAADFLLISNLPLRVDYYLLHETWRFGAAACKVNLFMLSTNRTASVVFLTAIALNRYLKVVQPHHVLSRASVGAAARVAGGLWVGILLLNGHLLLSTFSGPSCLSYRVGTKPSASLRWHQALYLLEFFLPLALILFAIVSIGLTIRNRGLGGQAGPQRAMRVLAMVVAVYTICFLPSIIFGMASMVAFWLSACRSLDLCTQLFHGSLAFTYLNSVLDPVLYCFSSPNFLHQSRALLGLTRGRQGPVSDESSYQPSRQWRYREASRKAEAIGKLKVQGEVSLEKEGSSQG

Compound	IC50
CCCCCCc1c(C(=O)c2cccc(C(=O)O)c2)c2cc(Cl)ccc2n1C [Compound 108, 3-(5-Chloro-2-hexyl-1-methyl-1H-indole-3-carbonyl)benzoic acid]	0.065 µM

Same assay, conditions: 5-oxo-ETE 10 nM; human granulocytes; Table 2; read-out: IC50 (μM) Ca^++

Compound	IC50
CC(C)CCCCc1c(C(=O)CC(C)CC(=O)O)c2ccc(Cl)cc2n1C (racemic) [Compound 109, 5-[6-Chloro-1-methyl-2-(5-methyl-hexyl)-1H-indol-3-yl]-3-methyl-5-oxo-pentanoic acid]	0.175 µM
CCCCCCCc1c(C(=O)CC(C)CC(=O)O)c2cc(Cl)ccc2n1C (racemic) [Compound 113, 5-(5-Chloro-2-heptyl-1-methyl-1H-indol-3-yl)-3-methyl-5-oxo-pentanoic acid]	0.035 µM
CC(C)CCCCc1cc2cc(Cl)ccc2n1C(=O)CC(C)CC(=O)O (racemic) [Compound 115, 5-[5-Chloro-2-(5-methyl-hexyl)-indol-1-yl]-3-methyl-5-oxo-pentanoic acid]	2 µM
CCCCCCc1c(C(=O)CC(C)CC(=O)O)c2cc(Cl)ccc2n1C (stereo in doubt) [Compound 107, 5-(5-Chloro-2-hexyl-1-methyl-1H-indol-3-yl)-3-(R)-methyl-5-oxo-pentanoic acid]	0.009 µM
CCCCCCc1cc2ccccc2n1C(=O)CCCC(=O)O [Compound 1, 5-(2-Hexyl-indol-1-yl)-5-oxo-pentanoic acid]	1 µM
CCCCCCc1c(C(=O)CCCC(=O)O)c2ccccc2n1C [Compound 5, 5-(2-Hexyl-1-methyl-1H-indol-3-yl)-5-oxo-pentanoic acid]	2.5 µM
CCCCCCc1c(C(=O)CC(C)CC(=O)O)c2ccccc2n1C (stereo not drawn) [Compound 6, 5-(2-Hexyl-1-methyl-1H-indol-3-yl)-3-methyl-5-oxo-pentanoic acid]	0.34 µM
CCCCCCc1c(C(=O)C[C@@H](C)CC(=O)O)c2cc(Cl)ccc2n1C [Compound 100, 5-(5-chloro-2-hexyl-1-methyl-1H-indol-3-yl)-3-(R)-methyl-5-oxopentanoic acid]	0.125 µM
CCCCCCc1c(C(=O)CC(C)CC(=O)O)c2cc(Cl)ccc2n1CC (stereo not drawn) [Compound 101, 5-(5-Chloro-1-ethyl-2-hexyl-1H-indol-3-yl)-3-methyl-5-oxo-pentanoic acid]	0.35 µM
CCCCCCc1c(C(=O)CC(C)CC(=O)O)c2ccccc2n1CC (stereo not drawn) [Compound 102, 5-(1-Ethyl-2-hexyl-1H-indol-3-yl)-3-methyl-5-oxo-pentanoic acid]	1.6 µM
CCCCCCc1c(C(=O)CC(C)CC(=O)O)c2ccc(Cl)cc2n1C (stereo not drawn) [Compound 104, 5-(6-Chloro-2-hexyl-1-methyl-1H-indol-3-yl)-3-methyl-5-oxo-pentanoic acid]	0.119 µM
CCCCCCc1c(C(=O)CC(C)CC(=O)NC(C)c2ccccc2)c2cc(Cl)ccc2n1C (stereo not drawn) [Compound 105, 5-(5-chloro-2-hexyl-1-methyl-1H-indol-3-yl)-3-methyl-5-oxo-N-(1-phenylethyl)pentanamide]	> 10 µM
CCCCCCc1c(C(=O)C[C@@H](C)CC(=O)NC(C)c2ccccc2)c2cc(Cl)ccc2n1C (stereo partly drawn) [Compound 106, 5-(5-Chloro-2-hexyl-1-methyl-1H-indol-3-yl)-3-(R)-methyl-5-oxo-pentanoic acid (1-phenyl-ethyl)-amide]	> 10 µM
CC(C)CCCCc1cc2ccc(Cl)cc2n1C(=O)CC(C)CC(=O)O (stereo not drawn) [Compound 110, 5-[6-Chloro-2-(5-methyl-hexyl)-indol-1-yl]-3-methyl-5-oxo-pentanoic acid]	1.03 µM
CC(C)CCCCc1c(C(=O)CC(C)CC(=O)O)c2cc(Cl)ccc2n1C (stereo not drawn) [Compound 114, 5-[5-Chloro-1-methyl-2-(5-methyl-hexyl)-1H-indol-3-yl]-3-methyl-5-oxo-pentanoic acid]	0.011 µM
CCCCCCc1cc2ccc(Cl)cc2n1C(=O)CCC(C)(C)C(=O)O [Compound 116, 5-(6-Chloro-2-hexyl-indol-1-yl)-2,2-dimethyl-5-oxo-pentanoic acid]	> 10 µM

Same assay, conditions: Table 3; position of hexyl/hexenyl on the scaffold; readout not given, values match Ca^++; read-out: IC50

Compound	IC50
CCCCCCc1cc2ccccc2n1C(=O)CCCC(=O)O [Compound 1, 5-(2-Hexyl-indol-1-yl)-5-oxo-pentanoic acid]	1 µM
CCCCCCc1cn(C(=O)CCCC(=O)O)c2ccccc12 [Compound 7, 5-(3-Hexyl-indol-1-yl)-5-oxo-pentanoic acid]	> 30 µM
CCCCCCc1cccc2ccn(C(=O)CCCC(=O)O)c12 [Compound 27, 5-(7-Hexyl-indol-1-yl)-5-oxo-pentanoic acid]	> 30 µM
CCCC/C=C/c1ccc2c(ccn2C(=O)CCCC(=O)O)c1 [Compound 28, 5-(5-hex-1-enyl-indol-1-yl)-5-oxo-pentanoic acid]	6.5 µM
CCCCCCc1ccc2c(ccn2C(=O)CCCC(=O)O)c1 [Compound 30, 5-(5-Hexyl-indol-1-yl)-5-oxo-pentanoic acid]	> 30 µM
CCCCCCc1ccc2ccn(C(=O)CCCC(=O)O)c2c1 [Compound 31, 5-(6-Hexyl-indol-1-yl)-5-oxo-pentanoic acid]	> 10 µM
CCCC/C=C/c1cccc2ccn(C(=O)CCCC(=O)O)c12 [Compound 32, 5-(7-Hex-1-enyl-indol-1-yl)-5-oxo-pentanoic acid]	> 10 µM

Same assay, conditions: Table 4; R1/R2/R3 variation; readout not given; read-out: IC50

Compound	IC50
CCCCCCc1c(C(=O)CCCC(=O)O)c2ccccc2n1C [Compound 5, 5-(2-Hexyl-1-methyl-1H-indol-3-yl)-5-oxo-pentanoic acid]	3.7 µM
CCCCCCn1cc(C(=O)CCCC(=O)O)c2ccccc21 [Compound 8, 5-(1-Hexyl-1H-indol-3-yl)-5-oxo-pentanoic acid]	> 30 µM
CCCCCCc1[nH]c2ccccc2c1C(=O)CCCC(=O)O [Compound 10, 5-(2-Hexyl-1H-indol-3-yl)-5-oxo-pentanoic acid]	11 µM
CCCCCCc1c(C(=O)CCCC(=O)O)n(C)c2ccccc12 [Compound 11, 5-(3-Hexyl-1-methyl-1H-indol-2-yl)-5-oxo-pentanoic acid]	> 30 µM

Same assay, conditions: Table 5; alkyl chain variation; readout not given, values match Ca^++; read-out: IC50

Compound	IC50
CCCCCCc1cc2ccccc2n1C(=O)CCCC(=O)O [Compound 1, 5-(2-Hexyl-indol-1-yl)-5-oxo-pentanoic acid]	1 µM
CCCC/C=C/c1cc2ccccc2n1C(=O)CCCC(=O)O [Compound 12, 5-(2-Hex-1-enyl-indol-1-yl)-5-oxo-pentanoic acid]	3.3 µM
CCCCCc1cc2ccccc2n1C(=O)CCCC(=O)O [Compound 18, 5-Oxo-5-(2-pentyl-indol-1-yl)-pentanoic acid]	1.1 µM
CCCCCCCCC/C=C\c1cc2ccccc2n1C(=O)CCCC(=O)O [Compound 20, 5-Oxo-5-(2-undec-1-enyl-indol-1-yl)-pentanoic acid]	20 µM
CCCCCCCCCCCc1cc2ccccc2n1C(=O)CCCC(=O)O [Compound 23, 5-Oxo-5-(2-undecyl-indol-1-yl)-pentanoic acid]	25 µM
CCCCCCCCc1cc2ccccc2n1C(=O)CCCC(=O)O [Compound 25, 5-(2-Octyl-indol-1-yl)-5-oxo-pentanoic acid]	2.7 µM
CCCCc1cc2ccccc2n1C(=O)CCCC(=O)O [Compound 26, 5-(2-Butyl-indol-1-yl)-5-oxo-pentanoic acid]	> 30 µM
CCCCCCc1cc2cc(Cl)ccc2n1C(=O)CCCC(=O)O [Compound 29, 5-(5-Chloro-2-hexyl-indol-1-yl)-5-oxo-pentanoic acid]	1.4 µM
CCCCCCCc1cc2ccccc2n1C(=O)CCCC(=O)O [Compound 33, 5-(2-Heptyl-indol-1-yl)-5-oxo-pentanoic acid]	1.5 µM

Same assay, conditions: Table 6; carboxyl side chain variation; readout not given, values match Ca^++; read-out: IC50

Compound	IC50
CCCCCCc1cc2ccccc2n1C(=O)CCCC(=O)O [Compound 1, 5-(2-Hexyl-indol-1-yl)-5-oxo-pentanoic acid]	1 µM
CCCCCCc1cc2ccccc2n1C(=O)C[C@@H](C)CC(=O)O [Compound 3, 5-(2-Hexyl-indol-1-yl)-3(R)-methyl-5-oxo-pentanoic acid]	0.8 µM
CCCCCCc1cc2ccccc2n1C(=O)CCC(=O)O [Compound 14, 4-(2-Hexyl-indol-1-yl)-4-oxo-butyric acid]	> 10 µM
CCCCCCc1cc2ccccc2n1CCCC(=O)O [Compound 16, 4-(2-Hexyl-indol-1-yl)-butyric acid]	4.5 µM
CCCCCCc1cc2ccccc2n1C(=O)CC(C)(C)CC(=O)O [Compound 21, 5-(2-Hexyl-indol-1-yl)-3,3-dimethyl-5-oxo-pentanoic acid]	13 µM

Same assay, conditions: Table 7; alkyl variation; readout not given, values match Ca^++; read-out: IC50

Compound	IC50
CCCC/C=C/c1ccc2c(ccn2C(=O)CC(C)CC(=O)O)c1 (stereo not drawn) [Compound 17, 5-(5-Hex-1-enyl-indol-1-yl)-3-methyl-5-oxo-pentanoic acid]	10 µM
CCCCCc1cc2ccccc2n1C(=O)CC(C)CC(=O)O (stereo not drawn) [Compound 19, 3-Methyl-5-oxo-5-(2-pentyl-indol-1-yl)-pentanoic acid]	0.1 µM
CCCCCCCc1cc2ccccc2n1C(=O)CC(C)CC(=O)O (stereo not drawn) [Compound 34, 5-(2-Heptyl-indol-1-yl)-3-methyl-5-oxo-pentanoic acid]	0.12 µM
